Reference: patent publication US20200325177A1, “METHODS OF MAKING STREPTOGRAMIN COMPOSITIONS AND THE USE THEREOF” (THE REGENTS OF THE UNIVERSITY OF CALIFORNIA, priority 2017, published 2020)
≈ marks a conversion by molar mass, not a printed value. Where two headings read alike, the source gives them in different places.

Assays:
Format in all cases: cell-based
E. faecalis = experiment: MIC, Gram-positive bacteria: E. faecalis; conditions: Enterococcus faecalis, column 1, read-out: Minimal Inhibitory Concentration (MIC) E. faecalis
E. faecium ATCC 35667 = experiment: MIC, Gram-positive bacteria: E. faecium ATCC 35667; conditions: Enterococcus faecium, ATCC35667, column 2, read-out: Minimal Inhibitory Concentration (MIC) E. faecium ATCC 35667
E. faecium VRE; vanA = experiment: MIC, Gram-positive bacteria: E. faecium VRE; vanA; conditions: Enterococcus faecium, column 3, read-out: Minimal Inhibitory Concentration (MIC) E. faecium VRE
S. aureus = experiment: MIC, Gram-positive bacteria: S. aureus (strains not named); conditions: Staphylococcus aureus, read-out: Minimal Inhibitory Concentration (MIC) S. aureus
[1] = system: S. aureus Vat A streptogramin; experiment: MIC, Gram-positive bacteria: S. aureus Vat A streptogramin; conditions: Staphylococcus aureus; Gram-positive; column 5; read-out: Minimal Inhibitory Concentration (MIC) S. aureus Vat A streptogramin
[2] = system: S. aureus Linezolid-resistant; cfr; experiment: MIC, Gram-positive bacteria: S. aureus Linezolid-resistant; cfr; conditions: Staphylococcus aureus, column 9, read-out: Minimal Inhibitory Concentration (MIC) S. aureus Linezolid-resistant
S. pneumoniae = experiment: MIC, Gram-positive bacteria: S. pneumoniae; conditions: Streptococcus pneumoniae, column 10, read-out: Minimal Inhibitory Concentration (MIC) S. pneumoniae
[3] = system: K. pneumoniae multidrug-resistant; experiment: MIC, Gram-negative bacteria: K. pneumoniae multidrug-resistant; conditions: Klebsiella pneumoniae, read-out: Minimal Inhibitory Concentration (MIC) K. pneumoniae multidrug-resistant
P. aeruginosa ATCC 27853 = experiment: MIC, Gram-negative bacteria: P. aeruginosa ATCC 27853; conditions: Pseudomonas aeruginosa, ATCC27853, read-out: Minimal Inhibitory Concentration (MIC) P. aeruginosa ATCC 27853
[4] = system: P. aeruginosa MDR clinical isolate; experiment: MIC, Gram-negative bacteria: P. aeruginosa MDR clinical isolate; conditions: Pseudomonas aeruginosa, read-out: Minimal Inhibitory Concentration (MIC) P. aeruginosa MDR clinical isolate
H. influenzae ATCC 49247 = experiment: MIC, Gram-negative bacteria: H. influenzae ATCC 49247; conditions: Haemophilus influenzae, ATCC49247, read-out: Minimal Inhibitory Concentration (MIC) H. influenzae ATCC 49247
Gram-Negative Organisms = experiment: microbe, parasite or virus in culture
[5] = first unnamed S. aureus column (c4)
[6] = fourth unnamed S. aureus column (c8)
[7] = second unnamed S. aureus column (c6)
[8] = third unnamed S. aureus column (c7)
[9] = Acinetobacter baumannii, ATCC19606, read-out: Minimal Inhibitory Concentration (MIC), A. baumannii ATCC 19606
[10] = Escherichia coli, ATCC25922, read-out: Minimal Inhibitory Concentration (MIC), E. coli ATCC 25922
[11] = Escherichia coli, read-out: Minimal Inhibitory Concentration (MIC), E. coli BAS2006, OMP C, OMP F
[12] = Escherichia coli, read-out: Minimal Inhibitory Concentration (MIC), E. coli olC efflux defective
[13] = Escherichia coli, read-out: Minimal Inhibitory Concentration (MIC), E. coli permeability mutant BAS1314, IMP4213ZAB::TN10
[14] = Escherichia coli, read-out: Minimal Inhibitory Concentration (MIC), E. coli ΔompC768, KanR insert
[15] = Klebsiella pneumoniae, ATCC43816, read-out: Minimal Inhibitory Concentration (MIC), K. pneumoniae ATCC 43816

SMILES | MIC (E. faecalis) | MIC (E. faecium ATCC 35667) | MIC (E. faecium VRE; vanA) | MIC (S. aureus; [5]) | MIC (S. aureus; [6]) | MIC (S. aureus; [7]) | MIC (S. aureus; [8]) | MIC [1] | MIC [2] | MIC (S. pneumoniae) | MIC [3] | MIC (P. aeruginosa ATCC 27853) | MIC [4] | MIC (H. influenzae ATCC 49247) | MIC (Gram-Negative Organisms; [9]) | MIC (Gram-Negative Organisms; [10]) | MIC (Gram-Negative Organisms; [11]) | MIC (Gram-Negative Organisms; [12]) | MIC (Gram-Negative Organisms; [13]) | MIC (Gram-Negative Organisms; [14]) | also measured
CC1=C\[C@@H](O)CC(=O)Cc2nc(co2)C(=O)N2CCC[C@@H]2C(=O)O[C@H]([C@H](C)COC(=O)Nc2ccc(C(F)(F)F)cc2)[C@H](C)/C=C/C(=O)NC\C=C\1 [SA0110193] | > 64 µg/mL | 8 µg/mL (≈ 10.9 µM) | > 64 µg/mL | 8 µg/mL (≈ 10.9 µM) | 8 µg/mL (≈ 10.9 µM) | 8 µg/mL (≈ 10.9 µM) | 16 µg/mL (≈ 21.9 µM) | 16 µg/mL (≈ 21.9 µM) | > 64 µg/mL | > 64 µg/mL | > 64 µg/mL | > 64 µg/mL | > 64 µg/mL | > 64 µg/mL | > 64 µg/mL | > 64 µg/mL | > 64 µg/mL | 8 µg/mL (≈ 10.9 µM) | 4 µg/mL (≈ 5.47 µM) | > 64 µg/mL | MIC (Gram-Negative Organisms; [15]): > 64 µg/mL
CC1=C\[C@@H](O)CC(=O)Cc2nc(co2)C(=O)N2CCC[C@@H]2C(=O)O[C@H]([C@H](C)COC(=O)Nc2ccc(OC(F)(F)F)cc2)[C@H](C)/C=C/C(=O)NC\C=C\1 [SA0110195] | > 64 µg/mL | 8 µg/mL (≈ 10.7 µM) | > 64 µg/mL | 16 µg/mL (≈ 21.4 µM) | 8 µg/mL (≈ 10.7 µM) | 16 µg/mL (≈ 21.4 µM) | 16 µg/mL (≈ 21.4 µM) | > 64 µg/mL | > 64 µg/mL | > 64 µg/mL | > 64 µg/mL | > 64 µg/mL | > 64 µg/mL | > 64 µg/mL | > 64 µg/mL | > 64 µg/mL | > 64 µg/mL | 8 µg/mL (≈ 10.7 µM) | 8 µg/mL (≈ 10.7 µM) | > 64 µg/mL | MIC (Gram-Negative Organisms; [15]): > 64 µg/mL
CC1=C\[C@@H](O)CC(=O)Cc2nc(co2)C(=O)N2CCC[C@@H]2C(=O)O[C@H]([C@H](C)COC(=O)Nc2ccccc2)[C@H](C)/C=C/C(=O)NC\C=C\1 [SA0110196] | > 64 µg/mL | 16 µg/mL (≈ 24.1 µM) | 64 µg/mL (≈ 96.6 µM) | 32 µg/mL (≈ 48.3 µM) | 16 µg/mL (≈ 24.1 µM) | 32 µg/mL (≈ 48.3 µM) | 64 µg/mL (≈ 96.6 µM) | > 64 µg/mL | > 64 µg/mL | 32 µg/mL (≈ 48.3 µM) | > 64 µg/mL | > 64 µg/mL | > 64 µg/mL | 16 µg/mL (≈ 24.1 µM) | > 64 µg/mL | > 64 µg/mL | 32 µg/mL (≈ 48.3 µM) | 2 µg/mL (≈ 3.02 µM) | 8 µg/mL (≈ 12.1 µM) | > 64 µg/mL | MIC (Gram-Negative Organisms; [15]): > 64 µg/mL
CC1=C\[C@@H](O)CC(=O)Cc2nc(co2)C(=O)N2CCC[C@@H]2C(=O)O[C@H]([C@H](C)COC(=O)Nc2cccnc2)[C@H](C)/C=C/C(=O)NC\C=C\1 [SA0110205] | > 64 µg/mL | 32 µg/mL (≈ 48.2 µM) | 64 µg/mL (≈ 96.4 µM) | > 64 µg/mL | > 64 µg/mL | > 64 µg/mL | > 64 µg/mL | > 64 µg/mL | > 64 µg/mL | 32 µg/mL (≈ 48.2 µM) | > 64 µg/mL | > 64 µg/mL | > 64 µg/mL | 32 µg/mL (≈ 48.2 µM) | > 64 µg/mL | > 64 µg/mL | > 64 µg/mL | 8 µg/mL (≈ 12.1 µM) | 16 µg/mL (≈ 24.1 µM) | > 64 µg/mL | MIC (Gram-Negative Organisms; [15]): > 64 µg/mL
CC1=C\[C@@H](O)CC(=O)Cc2nc(co2)C(=O)N2CCC[C@@H]2C(=O)O[C@H]([C@H](C)COC(=O)Nc2ccnc(Br)c2)[C@H](C)/C=C/C(=O)NC\C=C\1 [SA0110206] | > 64 µg/mL | 8 µg/mL (≈ 10.8 µM) | 16 µg/mL (≈ 21.5 µM) | 16 µg/mL (≈ 21.5 µM) | 16 µg/mL (≈ 21.5 µM) | 16 µg/mL (≈ 21.5 µM) | 32 µg/mL (≈ 43.1 µM) | > 64 µg/mL | > 64 µg/mL | 8 µg/mL (≈ 10.8 µM) | > 64 µg/mL | > 64 µg/mL | > 64 µg/mL | 4 µg/mL (≈ 5.39 µM) | > 64 µg/mL | > 64 µg/mL | 16 µg/mL (≈ 21.5 µM) | 2 µg/mL (≈ 2.69 µM) | 2 µg/mL (≈ 2.69 µM) | > 64 µg/mL | MIC (Gram-Negative Organisms; [15]): > 64 µg/mL
